Assays:
[1] = system: Staphylococcus epidermidis; experiment: Development of endogenous commensal S. epidermidis on skin explant during 24 h after adhesion step; format: cell-based; settings: systemic treatment, in words
Description: Il est par ailleurs possible d'observer la colonisation de l'explant par le germe exogène (S. aureus) après l'étape d'adhésion pendant 24 h. […] L'effet inverse est observé avec le traitement par le TNF-α, cytokine pro-inflammatoire, qui après avoir entraîné une forte chute de l'adhésion de S. aureus (Cf.III.4.2) ne permet pas une limitation de la croissance du germe pathogène sur l'explant et ceci au dépend du germe commensal S. epidermidis.
La figure 12 annexée illustre la comparaison de la colonisation d'une souche contaminante, S. aureus, avec celle d'une souche commensale, S. epidermis.

hBD-2 = format: cell-based, human; settings: skin explant, systemic
From the text: Il est connu de WO 97/45101 que les esters d'α-alkylglucoside peuvent être utilisés comme agent anti-microbien et/ou anti-fongique pour agir en tant que conservateur dans une composition, pour la préserver d'un développement microbien. D'autre part, les propriétés moussantes des esters de méthyl glucose sont décrites dans Desai et al (« Sofw Journal Seife, Oele, Fette, Wachse, Verlag für chemische Industrie » 1991). • Modèle cellulaire : lignée cellulaire HaCat, kératynocytes d'origine humaine, primoculture de kératinocytes humains • Modèle tissulaire : • Explants de peau normale provenant de déchet opératoire de chirurgie esthétique • Explants de gencive normale provenant de déchet opératoire de chirurgie implantatoire ou d'épithélium gingival reconstruit à partir de cellules épithéliales orales primaires • ➢ Les cellules HaCat sont ensemencées et cultivées en plaque 6 puits à 200 000 cellules/puits sous un volume de 2 ml de milieu de culture DMEM 1640 : (Ref: Invitrogen) complémenté par 10 % de sérum de veau foetal (SVF, Ref : CH30160.02 Perbio-Hyclone) pendant 18 h (sur la nuit). • ➢ A T0 les cellules sont lavées avec du tampon Phosphate (PBS, Ref: 52100-039 Invitrogen) puis privées en sérum pour les rendre quiescentes pendant 24 h (ralentissement de leur croissance et élimination de toute trace de facteurs susceptibles de perturber les effets induits par les traitements ultérieurs). • ➢ A T0+24 h les cellules sont traitées par des cytokines pro-inflammatoires (TNF-α à 10 ng/ml, IL1-β à 10 ng/ml) ou des éléments bactériens (LPS à 50 ng/ml, SEB à 100 ng/ml) ou des actifs potentiels de type « alkyle mono- ou di-ester d'α,β-butylglucoside » dilués dans du DMEM (1 ml/puits); La durée du traitement est de 3 h à 37°C. • ➢ Les kératinocytes primaires sont préparés à partir de peau normale provenant de déchet opératoire de chirurgie esthétique. Ils sont ensemencés et cultivés en plaque 24 puits à 60 000 cellules/puits sous un volume de 0,5 ml de milieu de culture KSFM (Ref : 37010 Invitrogen) complémenté par de l'EGF (Epidermal Growth Factor) à 1,5 ng/ml et du BPE (bovine pituitary extract) à 25 µg/ml pendant 24 h. • ➢ A J0, le milieu est remplacé par 0,5 ml de milieu KSFM complet, additionné de 1,2 nM de calcium. • ➢ A J+3, les cellules sont traitées par des cytokines pro-inflammatoires TNF-α et IL 1-β à 10 ng/ml ou des actifs potentiels de type « alkyle mono- ou di-ester d'α,β-butylglucoside » dilués dans 0,3 ml de milieu KSFM complet, en présence de 1,2 nM de calcium. […]

## laurate de butylglucoside [αβ-LBG brut]
[1]
  développement du germe commensal S. epidermidis: favorise à l'inverse le développement d'un germe commensal endogène
hBD-2
  incubation time from which hBD-2 induction is effective: ≤ 1 h
hBD-2; 30 µg/ml, in words
  synthèse des transcrits hBD-2: capable d'induire la synthèse des transcrits hBD-2

Source: patent publication EP1978972B1, “USE OF ALKYLGLUCOSIDE ESTERS AS BETA-DEFENSIN INDUCERS” (Pierre Fabre Dermo-Cosmétique, priority 2006, dated 2007)
